Test results from publication PMC7865145, “Identification of existing pharmaceuticals and herbal medicines as inhibitors of SARS-CoV-2 infection” (Proceedings of the National Academy of Sciences of the …, 2021).
Like-named read-outs stand apart in the source and are kept apart here.

Tests used:
[1] = system: SARS-CoV-2 (hCoV-19/Taiwan/4/2020); experiment: microbe, parasite or virus in culture; assay type: cell-based
[2] = system: SARS-CoV-2; experiment: Quantification of SARS-CoV-2 via antibody staining (viral NP protein) in Vero E6 cells; assay type: cell-based; settings: for IC50: viral titer by antinucleocapsid antibody
[3] = molecular target: Papain-like protease (nsp3) of SARS-CoV-2 (Severe acute respiratory syndrome coronavirus 2, UniProt P0DTD1); experiment: biochemical; assay type: biochemical; settings: for inhibition at 100 µM: read-out: Inhibition % at 100 uM of compounds, Papain-like protease (nsp3)
[4] = in vitro; settings: African green monkey, CC50 (μM); for CC50: Vero E6 cells
[5] = system: Vero E6 cells; experiment: Cytotoxicity study of compounds with Vero E6 cells (CCK-8)
[6] = system: SARS-CoV-2; experiment: In vivo anti-SARS-CoV-2 assay, lung virus load; settings: female golden Syrian hamsters, intranasal infection day 0, oral twice a day 30 mg/kg/d for 3 d, n = 5
[7] = Cytotoxicity study of compounds with Vero E6 cells (CCK-8); settings: African green monkey, Vero E6 cells, CC50 (μM)
[8] = hamster, in vivo
[9] = molecular target: nsp7-nsp8-nsp12 complex (Rdrp) of SARS-CoV-2 (Severe acute respiratory syndrome coronavirus 2, UniProt P0DTD1); experiment: Activity assay for SARS-CoV-2 RNA-dependent RNA polymerase; assay type: biochemical
[10] = system: Vero E6 cells
[11] = Severe acute respiratory syndrome coronavirus 2, Vero C1008, 72 h, read-out: CPE (μM) D3
[12] = Severe acute respiratory syndrome coronavirus 2, Vero C1008, 120 h, […], N.I. = no inhibition, dash = cytotoxicity was observed, read-out: CPE (μM) D5
[13] = 100 PFU of SARS-CoV-2 (multiplicity of infection 0.025) in Vero E6 cells
[14] = Severe acute respiratory syndrome coronavirus 2, Vero C1008, 100 PFU of SARS-CoV-2 (multiplicity of infection 0.025) in Vero E6 cells
[15] = 100 uM, FRET-based enzymatic assay, 3 independent experiments, N.I. = no inhibition
[16] = Severe acute respiratory syndrome coronavirus 2, Vero C1008, minimal dose that showed antiinfective effect after virus challenge, incubation 72 h (D3), Vero E6, read-out: CPE (μM) D3
[17] = Severe acute respiratory syndrome coronavirus 2, Vero C1008, minimal dose that showed antiinfective effect after virus challenge, incubation 120 h (D5), Vero E6, N.I. = no inhibition, dash = cytotoxicity was observed, read-out: CPE (μM) D5

SMILES | minimal effective concentration [1, 11] | IC50 [2, 13] | IC50 [2, 14] | Inhibition % at 100 uM of compounds, Papain-like protease (nsp3) [3, 15] | CC50 [4] | minimal effective concentration [1, 16] | minimal effective concentration [1, 17] | lung virus load vs control (drugs) [6] | CC50 at 24 h [7] | further results
CC[C@@]1([C@@H]2O[C@@H]([C@H]3O[C@@](O)(CO)[C@H](C)C[C@@H]3C)C[C@@H]2C)CC[C@H]([C@]2(C)CC[C@]3(C[C@H](O)[C@@H](C)[C@@H]([C@@H](C)[C@@H](OC)[C@H](C)C(=O)O)O3)O2)O1 [Monensin 14, Monensin] | 0.117 µM | 6.4 µM | 6.38 µM | N.I. | 6.66 µM |  |  |  |  | minimal effective concentration [1, 12]: 2.5 µM; selectivity index (antiviral effect vs cytotoxicity) ([2]; Vero E6, CC50 vs IC50): no selectivity; CC50 ([5]; Vero E6 cells): 6.6 µM
Nc1nc2nc[nH]c2c(=S)[nH]1 [Thioguanine 3, Thioguanine] |  | 1.7 µM | 1.67 µM |  |  | 1.25 µM | 2.5 µM | no significant antiinfective effect | 25.4 µM | 
CC[C@@H](C(=O)[C@@H](C)[C@@H](O)[C@H](C)[C@@H]1O[C@@H]([C@@H](CC)C(=O)O)CC[C@@H]1C)[C@H]1O[C@]2(C=C[C@@H](O)[C@]3(CC[C@@](C)([C@H]4CC[C@](O)(CC)[C@H](C)O4)O3)O2)[C@H](C)C[C@@H]1C [Salinomycin 13, Salinomycin] | 0.039 µM | 0.00048 µM | 0.000479 µM |  | 13.1 µM |  |  | no significant antiinfective effect |  | minimal effective concentration [1, 12]: 0.156 µM; selectivity ratio ([2]; African green monkey, Vero E6, CC50 vs IC50, read-out: selectivity index (antiviral effect vs cytotoxicity)): > 100; inhibition at 100 µM [3]: 9.4%; body-weight change after 3-d treatment [8]: higher weight loss than the control group
OC1(c2ccc(Cl)c(C(F)(F)F)c2)CCN(CCCC(c2ccc(F)cc2)c2ccc(F)cc2)CC1 [Penfluridol 11, Penfluridol] |  | 2.4 µM | 2.41 µM | N.I. |  | 5 µM | 10 µM |  | 12.9 µM | 
Nc1nc(=S)c2ncn([C@@H]3O[C@H](COP(=O)(O)OP(=O)(O)OP(=O)(O)O)[C@@H](O)[C@H]3O)c2[nH]1 [TGTP, thioguanosine triphosphate] |  |  |  |  |  |  |  |  |  | inhibition against Rdrp in vitro [9]: no inhibition
Cc1c(O)cccc1C(=O)N[C@@H](CSc1ccccc1)[C@H](O)CN1C[C@H]2CCCC[C@H]2C[C@H]1C(=O)NC(C)(C)C [Nelfinavir 1, Nelfinavir] |  |  | 3.3 µM |  |  | 5 µM | 10 µM | good antiviral effects | 12.3 µM | fold higher anti-SARS-CoV-2 activity than boceprevir in the cell-based assay ([2]; Vero E6): 15 fold; inhibition at 100 µM [3, 15]: 3.5%
CO/N=C1\C[C@]2(C[C@@H]3C[C@@H](C/C=C(\C)C[C@@H](C)/C=C/C=C4\CO[C@@H]5[C@H](O)C(C)=C[C@@H](C(=O)O3)[C@]45O)O2)O[C@H](/C(C)=C/C(C)C)[C@H]1C [Moxidectin 7, Moxidectin] |  | 3.1 µM | 3.17 µM | N.I. |  | 5 µM | 10 µM |  |  | cytotoxicity in the cell-based assay [10]: high cytotoxicity; CC50 ([10]; African green monkey, 24 h): 6.9 µM; CC50 at 24 h [4]: 6.88 µM
CC(C)(C)c1cc(C(C)(C)C)c(NC(=O)c2c[nH]c3ccccc3c2=O)cc1O [Ivacaftor 9, Ivacaftor] | 5 µM |  | 3.7 µM | N.I. |  |  |  |  | 12.9 µM | CPE (μM) D5 ([1]; […], N.I. = no inhibition, dash = cytotoxicity was observed): N.I.
CC[C@H](C)[C@H]1O[C@]2(CC[C@@H]1C)C[C@@H]1C[C@@H](C/C=C(\C)[C@@H](O[C@H]3C[C@H](OC)[C@@H](O[C@H]4C[C@H](OC)[C@@H](O)[C@H](C)O4)[C@H](C)O3)[C@@H](C)/C=C/C=C3\CO[C@@H]4[C@H](O)C(C)=C[C@@H](C(=O)O1)[C@]34O)O2 [Ivermectin 6, Ivermectin] | 2.5 µM |  | 4.1 µM | N.I. | 13.2 µM |  |  |  |  | cytotoxicity in the cell-based assay ([5]; Vero E6): high cytotoxicity
OC(c1cc(C(F)(F)F)nc2c(C(F)(F)F)cccc12)C1CCCCN1 (stereo not shown) [Mefloquine 8, Mefloquine] |  | 3.2 µM | 3.24 µM | N.I. |  | 5 µM | 10 µM | significantly reduced viral load |  | 
